PMC3177832, “Structure-Based Development of Small Molecule PFKFB3 Inhibitors: A Framework for Potential Cancer Therapeutic Agents Targeting the Warburg Effect” (PLoS ONE, 2011)
Entries after “also recorded” stand apart in the source; their conditions may differ.

Tests used:
[1] = system: HeLa and T47D cells; experiment: Cell growth inhibition (XTT assay or trypan blue counting); format: cell-based, human; settings: for Reduction in cell proliferation: 25 µM, human adenocarcinoma cells, compared to unexposed cells; for GI50: Homo sapiens, 36 hours incubation, inhibitor concentration for 50% of vehicle-treated cell growth
Method: (§1) Cell growth inhibition was determined by an XTT-based in-vitro toxicology assay (Sigma-Aldrich) or trypan blue staining. Cells were plated at a density of 3.5×10^4 per well in a 24-well plate in DMEM containing 10% FCS. These cells were allowed to attach for 24 hours, and the media were replaced with fresh media containing either vehicle (dimethyl sulfoxide) or appropriate concentrations of test compounds. After 36 hours of incubation with either vehicle or compounds, cells were trypsinized and cell viability was determined by the trypan blue exclusion assay using a hemacytometer. For the XTT assay, cells were seeded into 96-well cell culture plates at a density of 0.6×10^4 per well. After the appropriate treatment described above, cells were incubated with 0.1 mg/ml of 2,3-bis(2-methoxy-4-nitro-5-sulfophenyl)-5-[(phenylamino)carbonyl]-2H-tetrazolium hydroxide (XTT) for 4 hours and then cell number was determined by the absorbance at 470 nm, which is proportional to the number of cells that remained attached to the plate. GI50s were calculated as the inhibitor concentration needed for 50% of vehicle-treated cell growth. The appearance of apoptotic or necrotic cells was determined by flow cytometric analysis of cells double stained with Annexin V-FITC and propidium iodide (PI). Apoptotic and necrotic cells were distinguished on the basis of double-labeling for Annexin V-FITC (Sigma-Aldrich) and PI, a membrane-impermeable DNA stain. Floating and freshly trypsinized cells were pooled, washed twice in binding buffer, and processed following manufacturer's instructions. The fluorescence of samples were analyzed by flow cytometry (FACSCalibur®, Becton Dickinson Immunocytometry, San Jose, CA) using the CellQuest (BD Bioscience, Immunocytometry Systems, San Jose, CA, USA) software.

[2] = target: T1, PFKFB4 (Homo sapiens, UniProt Q16877); experiment: 2-Kase assay, isoform selectivity; format: biochemical; settings: N4A = 6 µM, YN1 = 1.3 µM
T1 construct: His6; made in house; host or cells: Escherichia coli C41(DE3)
T1 sequence (Q16877 whole entry, canonical isoform): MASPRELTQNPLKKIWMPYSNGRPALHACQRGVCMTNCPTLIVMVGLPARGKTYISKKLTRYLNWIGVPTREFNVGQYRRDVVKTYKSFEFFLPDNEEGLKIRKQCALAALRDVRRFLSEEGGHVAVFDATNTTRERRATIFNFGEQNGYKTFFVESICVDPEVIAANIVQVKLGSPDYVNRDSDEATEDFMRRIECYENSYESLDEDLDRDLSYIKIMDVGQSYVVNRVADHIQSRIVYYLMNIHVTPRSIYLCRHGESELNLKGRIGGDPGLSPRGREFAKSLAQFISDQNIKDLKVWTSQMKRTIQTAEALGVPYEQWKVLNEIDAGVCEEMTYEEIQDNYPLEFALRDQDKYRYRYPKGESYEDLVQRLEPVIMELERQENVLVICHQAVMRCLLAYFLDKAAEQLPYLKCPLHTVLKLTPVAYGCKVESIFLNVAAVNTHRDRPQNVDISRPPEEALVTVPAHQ
Method: (§2) To determine steady-state initial reaction rates, the 2-Kase reactions were performed first and the Fru-2,6-BP produced was measured by a conventional enzyme-coupled kinetics assay as described previously, [36]. Initial rates of decrease in absorbance (Abs) at 340 nm were corrected with the rate of the control reaction in which no Fru-2,6-BP was present. Negative controls were carried out in the absence of enzyme and positive controls indicate the reaction in the presence of enzyme without inhibitor compounds. The percentage of Inhibitory activity was calculated according to the formula: % inhibition = 100×[1−(Absnegativecontrol−Abscompound)/(Absnegativecontrol−Abspositivecontrol)]. IC50 values were determined in quadruplicate. For the kinetic studies, concentrations of one of substrate and inhibitor were varied and decrease in absorbance at 340 nm was measured. The inhibition patterns were analyzed using the program written by Cleland, in which Ki is the dissociation constants for the inhibitor from enzyme-inhibitor complex. For Selectivity studies, the 2-Kase assays were performed first and the F-2,6-P2 produced was measured by an enzyme coupled kinetics assay as described above. The His6-tagged PFKFB isoforms, PFKFB1, PFKFB2, and PFKFB4 were expressed in Escherichia coli C41(DE3) and purified using Ni-NTA affinity columns.

[3] = target: T2, PFKFB1 (Homo sapiens, UniProt P16118); experiment: 2-Kase assay, isoform selectivity; format: biochemical; settings: N4A = 6 µM, YN1 = 1.3 µM
T2 construct: His6; made in house; host or cells: Escherichia coli C41(DE3)
T2 sequence (P16118 whole entry, canonical isoform): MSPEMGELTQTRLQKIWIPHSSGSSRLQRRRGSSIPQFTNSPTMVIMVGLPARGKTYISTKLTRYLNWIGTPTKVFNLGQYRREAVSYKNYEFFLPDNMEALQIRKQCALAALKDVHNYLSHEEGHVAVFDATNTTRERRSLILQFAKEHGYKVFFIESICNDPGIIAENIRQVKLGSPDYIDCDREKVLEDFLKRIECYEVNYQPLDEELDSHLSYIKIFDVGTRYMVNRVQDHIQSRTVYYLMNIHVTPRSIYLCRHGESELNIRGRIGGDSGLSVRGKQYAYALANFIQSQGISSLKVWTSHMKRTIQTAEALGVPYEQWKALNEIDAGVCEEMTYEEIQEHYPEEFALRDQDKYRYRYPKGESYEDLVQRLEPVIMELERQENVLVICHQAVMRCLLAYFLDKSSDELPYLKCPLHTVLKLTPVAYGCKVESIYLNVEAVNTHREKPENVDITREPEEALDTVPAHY
Method: as §2

[4] = target: T3, PFKFB2 (Homo sapiens, UniProt O60825); experiment: 2-Kase assay, isoform selectivity; format: biochemical; settings: N4A = 6 µM, YN1 = 1.3 µM
T3 construct: His6; made in house; host or cells: Escherichia coli C41(DE3)
T3 sequence (O60825 whole entry, canonical isoform): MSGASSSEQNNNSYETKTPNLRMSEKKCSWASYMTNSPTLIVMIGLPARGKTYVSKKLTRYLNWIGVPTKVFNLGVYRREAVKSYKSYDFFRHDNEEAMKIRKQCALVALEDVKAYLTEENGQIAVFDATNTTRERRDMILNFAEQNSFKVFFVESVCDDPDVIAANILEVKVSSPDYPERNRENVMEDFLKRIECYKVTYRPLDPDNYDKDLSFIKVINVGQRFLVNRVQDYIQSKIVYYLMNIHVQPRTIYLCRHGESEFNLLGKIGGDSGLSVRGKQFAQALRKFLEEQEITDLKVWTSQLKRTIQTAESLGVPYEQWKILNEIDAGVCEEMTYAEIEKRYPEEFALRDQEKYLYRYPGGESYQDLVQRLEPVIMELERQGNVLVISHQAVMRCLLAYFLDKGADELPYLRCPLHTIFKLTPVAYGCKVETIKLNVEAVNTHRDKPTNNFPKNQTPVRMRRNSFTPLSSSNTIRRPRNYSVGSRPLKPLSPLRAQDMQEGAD
Method: as §2

[5] = system: HeLa cells; experiment: Lactate secretion (lactate oxidase-based assay kit); format: cell-based, human; settings: 25 µM
Method: (§3) HeLa cells were plated at a density of 2.5×10^5 in a 6-well plate in DMEM containing 10% FCS. The media were replaced with fresh DMEM containing either vehicle (dimethyl sulfoxide) or 25 µM of inhibitor the following day. After 0, 4, 8, 12, 24, or 48 hours of incubation with each inhibitor, media samples were collected for measuring the lactate secretion levels using a lactate oxidase-based assay kit (Sigma-Aldrich) and the lactate concentration was normalized to the total cellular protein concentration. The Fru-2,6-BP level was determined with collected cells at times of 0, 4,8,12,24, or 48 hours after the treatment, using the method described previously.

[6] = system: HeLa cells; experiment: Soft agar colony formation; format: cell-based, human; settings: 3 weeks; for Soft agar colony formation: HeLa cells, 25, 50 and 100 µM; for inhibition at 25 µM: Homo sapiens, 504 h, HeLa cells
Method: For HeLa cell colony formation was determined by soft agar assay. Cells ([…]) were mixed in DMEM medium containing 0.35% agarose and varying concentrations of N4A or YN1. Then the cell mixture was added on a layer of 0.6% concentration of bottom agar in 24 well plates and allowed to grow for three weeks at 37°Cunder 5% CO2. Fresh medium containing the inhibitors or vehicle (DMSO) was changed every four days. Colonies of 50 cells or more were counted after three weeks. The experiments were repeated at least five times.

[7] = target: T4, human PFKFB3 (Homo sapiens, UniProt Q16875); experiment: 2-Kase assay and kinetic analysis (enzyme-coupled); format: biochemical; settings: for Inhibition (type): Lineweaver-Burk analysis; for IC50: PFKFB3 2-Kase activity; for Ki: steady state inhibition against Fru-6-P; for PFKFB3 inhibition at twice the IC50: twice the IC50 for PFKFB3 (N4A = 6 µM, YN1 = 1.3 µM)
T4 construct: The structure contains a total of 443 amino acid residues of the full-length protein of 520 residues; 6xHis; made in house; host or cells: Escherichia coli BL21(DE3) pLysS
T4 sequence (Q16875 whole entry): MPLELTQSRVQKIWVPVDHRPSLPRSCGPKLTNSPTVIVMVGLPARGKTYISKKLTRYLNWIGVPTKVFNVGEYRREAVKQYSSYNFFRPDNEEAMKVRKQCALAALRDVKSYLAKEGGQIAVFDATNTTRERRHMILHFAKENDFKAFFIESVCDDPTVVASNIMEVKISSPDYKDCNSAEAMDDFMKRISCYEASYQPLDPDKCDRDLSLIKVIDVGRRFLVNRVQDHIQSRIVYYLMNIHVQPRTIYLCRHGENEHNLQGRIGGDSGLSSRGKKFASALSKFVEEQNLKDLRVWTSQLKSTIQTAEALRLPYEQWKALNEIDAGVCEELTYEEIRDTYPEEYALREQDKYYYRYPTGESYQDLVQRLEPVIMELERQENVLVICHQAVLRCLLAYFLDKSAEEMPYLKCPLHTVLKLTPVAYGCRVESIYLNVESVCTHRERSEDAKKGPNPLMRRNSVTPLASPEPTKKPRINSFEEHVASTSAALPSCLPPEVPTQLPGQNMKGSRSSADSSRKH
Method: as §2, with “The percentage of Inhibitory activity was calculated according to the formula: % inhibition = 100×[1−(Absnegativecontrol−Abscompound)/(Absnegativecontrol−Abspositivecontrol)].” left out

[8] = system: HeLa cells; experiment: Flow cytometric analysis of cell death (Annexin V-FITC / PI); format: cell-based, human
Method: as §1

[9] = system: HeLa cells; experiment: Cellular Fru-2,6-BP level determination; format: cell-based, human; settings: 25 µM
Method: as §3

SMILES | Reduction in cell proliferation [1] | GI50 [1] [nM] | PFKFB4 inhibition at twice the IC50 for PFKFB3 [2] | PFKFB1 inhibition at twice the IC50 for PFKFB3 [3] | PFKFB2 inhibition at twice the IC50 for PFKFB3 [4] | Decrease in lactate secretions [5] | Soft agar colony formation [6] | inhibition at 25 µM [6] [%] | Effect of Tween-20 on PFKFB3 inhibition ([7]; 10 µM compound, in the presence of 0.1% Tween-20) | inhibition at 10 µM ([7]; 10 µM compound, substrate-saturating conditions) [%] | Inhibition (type) [7] | IC50 [7] [nM] | Ki [7] [nM] | PFKFB3 inhibition at twice the IC50 [7] | Type of cell death induced ([8]; 25 µM) | Type of cell death induced ([8]; 50 µM) | Type of cell death induced ([8]; Annexin V / PI) | Reduction of Fru-2,6-BP level ([9]; 48-hour exposure) | Reduction of Fru-2,6-BP level ([9]; 8 hour exposure) | Increase in PFKFB3 inhibition compared to N4A ([7]; relative to lead N4A) [fold]
O=c1cc(-c2ccc(O)cc2)oc2c(O)c(O)c(O)c(O)c12 [N4A, 5,6,7,8-tetrahydroxy-2-(4-hydroxyphenyl) chromen-4-one] | 70% | 14200 ± 1500 | less than 50% | less than 50% | less than 50% | greater than 30% | significantly inhibited colony formation | 64 | not affected | > 65 | competitive inhibitor against Fru-6-P; also recorded: Competitive to Fru-6-P | 2970 ± 160 | 1290 ± 260 | over 80% | prone to apoptosis | death by necrosis was significantly increased | induced both apoptotic and necrotic cell death | over 40% | approximately 20% | 
O=c1c(-c2ccc(O)cc2)coc2c(O)c(O)ccc12 [YN1, 7,8-dihydroxy-3-(4-hydroxyphenyl) chromen-4-one] | over 90% | 8200 ± 800 | less than 40% | less than 40% | less than 40% | greater than 30% | significantly inhibited colony formation | 79 |  |  | Competitive to Fru-6-P | 670 ± 80 | 240 ± 30 | over 80% | prone to apoptosis | death by necrosis was significantly increased | induced both apoptotic and necrotic cell death | over 40% | approximately 20% | 5
CCOC(=O)c1cc2ccc(O)cc2oc1=O [YZ9, ethyl 7-hydroxy-2-oxochromene-3-carboxylate] |  | 2700 ± 200 |  |  |  |  |  |  |  |  |  |  |  |  |  |  |  |  |  | 
